For one series, the system named is MDA-MB-231. Put plainly: Growth inhibition of human MDA-MB-231 cells incubated for 48 hrs by sulforhodamine B assay. It counts as functional. Particulars: MDA-MB-231, 48 h. (Sulforhodamine B stains cellular protein and so reports cell mass.)
The next series relates to MDA-MB-435. As to the kind of experiment: Growth inhibition of human MDA-MB-435 cells incubated for 48 hrs by sulforhodamine B assay. Particulars: MDA-MB-435, 48 h. The series is classed as functional.
Another series relates to SNB-75. Put plainly: Growth inhibition of human SNB75 cells incubated for 48 hrs by sulforhodamine B assay. The series is classed as functional. Particulars: SNB-75, 48 h.
The test system of another series is U-251. Put plainly: Growth inhibition of human U251 cells incubated for 48 hrs by sulforhodamine B assay. Particulars: U-251, 48 h. The series is classed as functional.
The next series has as its system NCI-H522. Put plainly: Growth inhibition of human NCI-H522 cells incubated for 48 hrs by sulforhodamine B assay. It counts as functional. Particulars: NCI-H522, 48 h.
Another series concerns LOX IMVI. Put plainly: Growth inhibition of human LOXIMVI cells incubated for 48 hrs by sulforhodamine B assay. It counts as functional.
In a further series the test system is MOLT-4. Put plainly: Growth inhibition of human MOLT4 cells incubated for 48 hrs by sulforhodamine B assay. The series is classed as functional. Particulars: MOLT-4, 48 h.
In another series the test system is A498. As to the kind of experiment: Growth inhibition of human A498 cells incubated for 48 hrs by sulforhodamine B assay. It counts as functional. Particulars: A498, 48 h.
The subject of a further series is UACC-257. Put plainly: Growth inhibition of human UACC257 cells incubated for 48 hrs by sulforhodamine B assay. It counts as functional. Particulars: UACC-257, 48 h.
Another series concerns SF-295. Put plainly: Growth inhibition of human SF295 cells incubated for 48 hrs by sulforhodamine B assay. It counts as functional. Particulars: SF-295, 48 h.
The next series relates to T47D. As to the kind of experiment: Growth inhibition of human T47D cells incubated for 48 hrs by sulforhodamine B assay. It counts as functional.
Another series concerns NCI-H23. As to the kind of experiment: Growth inhibition of human NCI-H23 cells incubated for 48 hrs by sulforhodamine B assay. It counts as functional. Particulars: NCI-H23, 48 h.
The species named for a further series is Homo sapiens. As to the kind of experiment: Inhibition of PTK in human MCF7 cells at 1 uM preincubated for 2 hrs followed by poly-Glu-Tyr substrate addition by ELISA relative to control. It counts as cell-based. (ELISA stands for enzyme-linked immunosorbent assay.)
The next series relates to KM12. Put plainly: Growth inhibition of human KM12 cells incubated for 48 hrs by sulforhodamine B assay. Particulars: KM12, 48 h. It counts as functional.
The subject of a further series is SK-MEL-5. Put plainly: Growth inhibition of human SK-MEL-5 cells incubated for 48 hrs by sulforhodamine B assay. It counts as functional. Particulars: SK-MEL-5, 48 h.
A further series concerns NCI-H460. Put plainly: Growth inhibition of human NCI-H460 cells incubated for 48 hrs by sulforhodamine B assay. It counts as functional. Particulars: NCI-H460, 48 h.
The subject of another series is A549. As to the kind of experiment: Growth inhibition of human A549/ATCC cells incubated for 48 hrs by sulforhodamine B assay. The series is classed as functional. Particulars: A549, 48 h.
Series [1] is described as follows: Inhibition of PTK in human MCF7 cells preincubated for 2 hrs followed by poly-Glu-Tyr substrate addition by ELISA. The series is classed as cell-based.
A short description of series [2]: Safety index, ratio of compound IC50 to 5-fluorouracil IC50 for human WI38 cells. The series is classed as ADME, cell-based. Particulars: WI-38 cells, read-out: Ratio IC50.
Series [3] in a line: Safety index, ratio of compound IC50 to 5-fluorouracil IC50 for human WISH cells. Particulars: read-out: Ratio IC50. The series is classed as ADME, cell-based.

As a reminder, the GI50 is the concentration at which growth is held to half of that of the control. High values mean lower sensitivity of the cells, low ones greater sensitivity of the cells. What is called inhibition is the drop in the measured response relative to a control, in per cent. `COc1cc(OC)cc(-c2ccc(-c3ccc(C(=N)N)cc3)s2)c1`: the GI50 came to 2.08 µM in the series with MDA-MB-231; 1.7 µM with MDA-MB-435; 1.58 µM in the series with SNB-75; 1.67 µM with U-251; 1.96 µM in the series with NCI-H522; 0.924 µM with LOX IMVI. For the same compound, the 50% growth inhibitory concentration (GI50) with MOLT-4 came to 1.65 µM; with A498, 1.73 µM; in the series on UACC-257 it was 2.76 µM; in the series with SF-295 it was 1.82 µM; with T47D, 1.65 µM; with NCI-H23, 1.92 µM. Besides, the GI50 with KM12 came out at 1.84 µM; with SK-MEL-5 it was 1.81 µM; with NCI-H460, 1.84 µM; in the series with A549, 2.58 µM. In the series filed under Homo sapiens, this compound registered an inhibition of 19 to 36%.
One may read the IC50 as the concentration needed to halve the response being measured. Turning to `N=C(N)c1ccc(-c2ccc(-c3ccc(Cl)cc3)s2)cc1`, the concentration for 50% growth inhibition (GI50) was determined as 0.184 µM in the series on MDA-MB-231; 0.172 µM in the series on MDA-MB-435; 0.157 µM with SNB-75; 0.172 µM in the series on U-251; 0.186 µM with NCI-H522; 0.179 µM in the series with LOX IMVI. Also, the GI50 in the series on MOLT-4 is 0.207 µM; in the series on A498, 0.191 µM; in the series on UACC-257, 0.31 µM; in the series with SF-295 it was 0.171 µM; with T47D, 0.179 µM; in the series on NCI-H23, 0.19 µM. Further, the GI50 in the series on KM12 was 0.196 µM; in the series on SK-MEL-5, 0.204 µM; with NCI-H460, 0.193 µM; in the series with A549, 0.202 µM. This compound had an inhibition in the series filed under Homo sapiens of 98%. Further, in series [1], the IC50 came out at 0.013 µM.
`N=C(N)c1ccc(-c2ccc(-c3ccccc3)s2)cc1F`: the GI50 came out at 3.34 µM with MDA-MB-231; 2.18 µM in the series on MDA-MB-435; 10.5 µM with SNB-75; 4.7 µM with U-251; 6.8 µM with NCI-H522; 2.58 µM in the series with LOX IMVI. Further, the 50% growth inhibitory concentration (GI50) with MOLT-4 was 4.4 µM; in the series with A498, 12.8 µM; in the series on UACC-257, 2.18 µM; in the series with T47D it was 5.13 µM; in the series with NCI-H23, 11.6 µM; in the series on KM12, 4.41 µM. Further, the GI50 was 3.43 µM with SK-MEL-5, 3.69 µM with NCI-H460 and 5.1 µM in the series on A549. The compound also displayed an inhibition in the series filed under Homo sapiens of 19 to 36%.
With `COc1ccc(-c2ccc(-c3ccc(C(=N)N)c(F)c3)s2)cc1`, the GI50 in the series on MDA-MB-231 is 2.75 µM; with MDA-MB-435 it was 1.83 µM; with SNB-75, 10.7 µM; with U-251, 2.92 µM; in the series with NCI-H522, 3.73 µM; in the series on LOX IMVI it was 2.23 µM. Further, the 50% growth inhibitory concentration (GI50) stood at 3.26 µM in the series on MOLT-4; 6.58 µM with A498; 1.84 µM in the series with UACC-257; 2.92 µM with T47D; 11 µM with NCI-H23; 3.16 µM with KM12. Moreover, the GI50 was 2.67 µM in the series with SK-MEL-5, 2.43 µM in the series with NCI-H460 and 4.76 µM with A549. Besides, the inhibition in the series listed under Homo sapiens was found to be 66%. This compound showed a half-maximal inhibitory concentration (IC50) in series [1] of 0.92 µM.
On to `N=C(N)c1ccc(-c2ccc(-c3ccc(Cl)cc3)s2)cc1F`, for which the concentration for 50% growth inhibition (GI50) with MDA-MB-435 was 0.163 µM; in the series on SNB-75, 0.165 µM; with U-251, 0.203 µM; in the series on NCI-H522 it was 0.194 µM; in the series with LOX IMVI, 0.205 µM; in the series on MOLT-4 it was 0.243 µM. Also, the GI50 in the series with A498 stood at 1.38 µM; with UACC-257 it was 1.62 µM; with SF-295 it was 0.691 µM; in the series on NCI-H23, 1.15 µM; with KM12, 0.226 µM; with SK-MEL-5 it was 1.27 µM. The concentration for 50% growth inhibition (GI50) in the series on NCI-H460 came to 0.207 µM; with A549 it was 0.217 µM. The selectivity ratio in series [2] worked out at 6; in series [3], 9. In the series filed under Homo sapiens, this compound came in with an inhibition of 88%. In addition, the half-maximal inhibitory concentration (IC50) in [1] is 0.107 µM.
Regarding `N=C(N)c1ccc(-c2ccc(-c3ccc(F)cc3)s2)cc1`, the GI50 turned out to be 1.56 µM in the series on MDA-MB-231; 1.66 µM in the series on MDA-MB-435; 1.65 µM in the series on SNB-75; 0.457 µM in the series on U-251; 1.87 µM in the series on NCI-H522; 0.164 µM in the series with LOX IMVI. For the same compound, the GI50 in the series on MOLT-4 was found to be 1.58 µM; in the series on A498, 1.42 µM; with UACC-257, 2.58 µM; in the series on SF-295 it was 1.66 µM; in the series with T47D, 1.2 µM; in the series with NCI-H23 it was 1.58 µM. Besides, the concentration for 50% growth inhibition (GI50) in the series with KM12 stood at 1.34 µM; in the series with SK-MEL-5, 1.6 µM; with NCI-H460 it was 0.392 µM; in the series on A549, 2.12 µM. This compound had an inhibition in the series filed under Homo sapiens of 19 to 36%.
On to `COc1cc(OC)cc(-c2ccc(-c3ccc(C(=N)N)c(F)c3)s2)c1`, for which the GI50 in the series on MDA-MB-435 worked out at 0.194 µM; with SNB-75, 1.3 µM; in the series with U-251, 0.198 µM; in the series on NCI-H522, 1.2 µM; with LOX IMVI, 0.196 µM; in the series with MOLT-4, 0.326 µM. For the same compound, the GI50 with A498 was found to be 1.33 µM; with UACC-257, 1.85 µM; with SF-295 it was 1.59 µM; in the series on NCI-H23, 1.43 µM; in the series with KM12 it was 0.352 µM; with SK-MEL-5 it was 0.956 µM. Also, the results for the concentration for 50% growth inhibition (GI50) in the series with NCI-H460 and in the series on A549 were 0.195 µM and 0.4 µM, respectively. The inhibition in the series listed under Homo sapiens was found to be 74%. The compound further gave a half-maximal inhibitory concentration (IC50) in [1] of 0.877 µM.

Source of the values: ChEMBL document CHEMBL4007388, “Synthesis and antiproliferative activity of monocationic arylthiophene derivatives” (Eur J Med Chem, 2017).
